The test system of one experiment is MOLM14 D835Y cells. In words: MOLM14 D835Y cell viability assay (Cell Titer Glo). The format is cell-based. Conditions: Homo sapiens, MOLM-14, 48 h, cell viability, Cell Titer Glo, 48 hours; read-out: MOLM14 D835Y IC50. How it is done: (§1) Both cell lines have activated FLT3 receptors, each of which carry additional resistance mutations in the kinase domain (D835Y and F691L, respectively).
(§2) For viability/cytotoxicity assessments, cells were seeded into 1536-well white polystyrene tissue culture-treated Greiner plates using a Multidrop Combi dispenser (ThermoFisher), in final volume 5 μL of growth media per well, at a density of 1000 cells per well. […] Plates were incubated for 48 hours at standard incubator conditions covered by a stainless steel gasketed lid to prevent evaporation. 48 hours post compound addition, 3 μL of Cell Titer Glo (Promega) were added to each well and plates were incubated at room temperature for 15 minutes with the stainless-steel lid in place. Luminescence readings were taken using a Viewlux imager (PerkinElmer) with a 2 second exposure time per plate.
(Cellular ATP, detected with luciferase, serves as a proxy for viable cell number.)

For a further experiment, the target named is T1, IRAK1 (Homo sapiens, UniProt P51617).
T1 construct: purchased Reaction Biology (RBC HotSpot)
T1 sequence (P51617 whole entry): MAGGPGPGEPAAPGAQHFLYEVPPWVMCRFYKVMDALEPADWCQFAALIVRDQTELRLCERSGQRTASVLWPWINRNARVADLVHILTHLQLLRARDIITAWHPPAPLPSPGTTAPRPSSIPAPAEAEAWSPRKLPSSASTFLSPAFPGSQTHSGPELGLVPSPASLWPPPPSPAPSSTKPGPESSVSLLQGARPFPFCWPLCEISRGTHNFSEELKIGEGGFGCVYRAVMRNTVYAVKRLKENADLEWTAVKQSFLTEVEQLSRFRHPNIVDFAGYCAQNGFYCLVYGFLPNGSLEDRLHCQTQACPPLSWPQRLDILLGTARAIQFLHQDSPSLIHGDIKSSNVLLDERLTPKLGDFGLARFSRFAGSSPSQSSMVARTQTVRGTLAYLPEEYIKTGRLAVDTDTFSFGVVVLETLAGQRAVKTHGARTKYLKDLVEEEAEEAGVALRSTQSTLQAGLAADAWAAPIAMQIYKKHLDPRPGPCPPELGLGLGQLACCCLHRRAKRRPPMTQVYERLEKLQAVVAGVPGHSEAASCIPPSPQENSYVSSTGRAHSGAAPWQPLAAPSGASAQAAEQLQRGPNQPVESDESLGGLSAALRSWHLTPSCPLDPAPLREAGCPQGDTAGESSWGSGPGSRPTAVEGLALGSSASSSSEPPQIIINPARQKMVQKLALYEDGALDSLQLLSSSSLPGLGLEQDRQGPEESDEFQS
The experiment in a line: RBC HotSpot Kinase Assay, IRAK1. Conditions: isolated kinase enzyme, 33P-ATP, P81 filter-binding. Type of experiment: biochemical. The text has this: (§3) This assay uses the isolated kinase enzyme. […] Unlike kinase binding assays that measure competition for ATP, the HotSpot Kinase Assay is a functional assay that measures catalytic activity; as such it measures relative functional potency regardless of the mechanism of enzyme inhibition. This assay uses the form of the various enzymes that are easiest to express, which may not necessarily be the form of the enzyme that exist in the cell. (Sometimes the carboxy terminus has been truncated to aid in expression, or, if it is a receptor kinase, the enzyme itself is isolated from the other parts of the receptor that are involved in regulating kinase activity.)
(§4) The reagent used was as follows: Base Reaction buffer; 20 mM Hepes (pH 7.5), 10 mM MgCl2, 1 mM EGTA, 0.01% Brij35, 0.02 mg/ml BSA, 0.1 mM Na3VO4, 2 mM DTT, 1% DMSO. Required cofactors were added individually to each kinase reaction.

The test system of a further experiment is MOLM14 F691L cells. The experiment in a line: MOLM14 F691L cell viability assay (Cell Titer Glo). The format is cell-based. As to conditions: Homo sapiens, MOLM-14; cell viability, Cell Titer Glo, 48 hours; read-out: MOLM14 F691L IC50. The protocol: as §1, §2
In the next experiment the target is T2, FLT3 (Homo sapiens, UniProt P36888).
T2 sequence (P36888 27-993): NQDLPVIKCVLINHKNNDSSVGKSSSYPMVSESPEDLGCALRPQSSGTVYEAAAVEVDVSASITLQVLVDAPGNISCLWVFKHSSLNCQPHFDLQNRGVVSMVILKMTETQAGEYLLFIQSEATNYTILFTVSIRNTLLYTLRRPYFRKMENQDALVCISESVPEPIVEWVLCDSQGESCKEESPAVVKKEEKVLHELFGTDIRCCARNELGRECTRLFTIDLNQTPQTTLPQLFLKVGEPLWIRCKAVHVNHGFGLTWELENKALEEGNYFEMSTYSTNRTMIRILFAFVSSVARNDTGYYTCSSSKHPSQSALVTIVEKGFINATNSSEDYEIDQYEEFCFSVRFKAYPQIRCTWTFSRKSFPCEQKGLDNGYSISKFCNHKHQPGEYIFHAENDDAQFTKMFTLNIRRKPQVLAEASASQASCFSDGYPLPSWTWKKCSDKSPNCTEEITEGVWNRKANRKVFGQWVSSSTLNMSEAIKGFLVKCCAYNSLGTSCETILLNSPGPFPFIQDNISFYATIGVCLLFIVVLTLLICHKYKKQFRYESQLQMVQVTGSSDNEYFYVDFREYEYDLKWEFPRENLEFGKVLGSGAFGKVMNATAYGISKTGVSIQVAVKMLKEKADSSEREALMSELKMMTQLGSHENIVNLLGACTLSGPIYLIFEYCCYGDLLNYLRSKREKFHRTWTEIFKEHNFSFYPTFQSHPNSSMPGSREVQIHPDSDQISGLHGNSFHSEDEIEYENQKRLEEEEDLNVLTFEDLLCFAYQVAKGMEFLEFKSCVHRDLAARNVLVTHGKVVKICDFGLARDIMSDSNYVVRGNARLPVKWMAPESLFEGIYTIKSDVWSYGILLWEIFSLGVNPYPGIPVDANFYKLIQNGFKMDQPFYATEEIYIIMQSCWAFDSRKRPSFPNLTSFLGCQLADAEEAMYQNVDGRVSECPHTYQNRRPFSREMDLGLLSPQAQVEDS
In words: RBC HotSpot Kinase Assay, FLT3. Type of experiment: biochemical. As to conditions: isolated kinase enzyme, 33P-ATP, P81 filter-binding. Set-up: purchased Reaction Biology (RBC HotSpot).
Source text: as §3, §4

The target in a further experiment is T3, IRAK4 (Homo sapiens, UniProt Q9NWZ3).
T3 sequence (Q9NWZ3 1-460): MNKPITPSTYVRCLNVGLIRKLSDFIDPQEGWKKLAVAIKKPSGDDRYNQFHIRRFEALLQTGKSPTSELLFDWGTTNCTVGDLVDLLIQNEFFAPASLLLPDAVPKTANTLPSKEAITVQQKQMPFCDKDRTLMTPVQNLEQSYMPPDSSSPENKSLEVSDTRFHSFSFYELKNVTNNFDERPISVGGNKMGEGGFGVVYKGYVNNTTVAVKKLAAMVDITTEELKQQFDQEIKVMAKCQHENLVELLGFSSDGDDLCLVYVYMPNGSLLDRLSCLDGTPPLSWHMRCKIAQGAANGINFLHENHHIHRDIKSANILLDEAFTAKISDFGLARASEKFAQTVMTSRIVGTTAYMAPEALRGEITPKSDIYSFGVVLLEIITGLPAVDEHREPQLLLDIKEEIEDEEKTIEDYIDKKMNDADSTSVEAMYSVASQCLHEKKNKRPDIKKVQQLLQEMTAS
The experiment in a line: RBC HotSpot Kinase Assay, IRAK4. Conditions: isolated kinase enzyme, 33P-ATP, P81 filter-binding. The format is biochemical. Set-up: purchased Reaction Biology (RBC HotSpot).
Source text: as §3, with “enzyme. This assay is very useful for determining competition of the inhibitor for ATP and/or substrates and for measuring the kinetics of enzyme inhibition.” for “enzyme.”
as §4
The reaction procedure was as follows: • 1) Substrates were prepared in freshly prepared Reaction Buffer. • 2) Any required cofactors were delivered to the substrate solution above. • 3) Kinase was delivered into the substrate solution and gently mixed. • 4) Compounds were delivered in 1000A DM into the kinase reaction mixture by Acoustic technology (Echo550; nanoliter range), followed by incubation for 20 min at room temp. • 5) 33P-ATP was delivered into the reaction mixture to initiate the reaction. • 6) The mixture was incubated for 2 hours at room temperature. • 7) Kinase activity was detected by P81 filter-binding method.

As for `FC(F)COc1cc2ncc(-c3cncc(N[C@H]4CNCC[C@@H]4F)n3)n2nc1C1CC1` [Compound 7a, 6-(6-cyclopropyl-7-(2,2-difluoroethoxy)imidazo[1,2-b]pyridazin-3-yl)-N-((3 S,4S)-4-fluoropiperidin-3-yl)pyrazin-2-amine], the IC50 was 10 nM with MOLM14 D835Y cells; 73 nM on IRAK1; 20 nM in the experiment with MOLM14 F691L cells; less than 0.5 nM at FLT3; 2 nM on IRAK4.
`c1cc(-c2cnc3cc(OC4CC4)c(C4CC4)nn23)nc(N[C@@H]2CCCNC2)n1` [Compound 11a, (R)-4-(7-cyclopropoxy-6-cyclopropylimidazo[1,2-b]pyridazin-3-yl)-N-(piperidin-3-yl)pyrimidin-2-amine]: the concentration for half-maximal inhibition (IC50) in the experiment with MOLM14 D835Y cells is 22 nM; on IRAK1, 52 nM; in the experiment with MOLM14 F691L cells it was 80 nM; on FLT3 it was less than 0.5 nM; at IRAK4 it was 5 nM.
Consider `F[C@H]1CNC[C@@H]1Nc1cncc(-c2cnc3cc(OC4CC4)c(C4CC4)nn23)n1` [Compound 14a, 6-(7-cyclopropoxy-6-cyclopropylimidazo[1,2-b]pyridazin-3-yl)-N-((3S,4S)-4-fluoropyrrolidin-3-yl)pyrazin-2-amine], for which the concentration for half-maximal inhibition (IC50) with MOLM14 D835Y cells was 101 nM; at IRAK1 it was 117 nM; in the experiment on MOLM14 F691L cells it was 318 nM; on FLT3, less than 0.5 nM; at IRAK4, 16 nM.
For `c1ncc(-c2cnc3cc(OC4CC4)c(C4CC4)nn23)nc1N[C@@H]1CCCNC1` [Compound 15a, (R)-6-(7-cyclopropoxy-6-cyclopropylimidazo[1,2-b]pyridazin-3-yl)-N-(piperidin-3-yl)pyrazin-2-amine], in that order: 45 nM, 258 nM, 113 nM, less than 0.5 nM and 18 nM.
For `COc1cc2ncc(-c3nc(N[C@@H]4CCCNC4)ncc3F)n2nc1C(C)(C)O` [Compound 43a, (R)-2-(3-(5-fluoro-2-(piperidin-3-ylamino)pyrimidin-4-yl)-7-methoxyimidazo[1,2-b]pyridazin-6-yl)propan-2-ol], the 50% inhibitory concentration (IC50) in the experiment with MOLM14 D835Y cells is 23 nM; at IRAK1, 50 nM; on FLT3 it was 1 nM; at IRAK4, 29 nM.
With `COc1cc2ncc(-c3nc(N[C@H]4CNC[C@@H]4F)ncc3F)n2nc1C(C)(C)O` [Compound 44a, 2-(3-(5-fluoro-2-(((3S,4S)-4-fluoropyrrolidin-3-yl)amino)pyrimidin-4-yl)-7-methoxyimidazo[1,2-b]pyridazin-6-yl)propan-2-ol], the half-inhibitory concentration (IC50) is 51 nM in the experiment on MOLM14 D835Y cells, 32 nM on IRAK1, less than 0.5 nM at FLT3 and 4 nM at IRAK4.
For `CC(C)(O)c1ccc2ncc(-c3nc(N[C@H]4CNC[C@@H]4F)ncc3F)n2c1` [Compound 47a, 2-(3-(5-fluoro-2-(((3S,4S)-4-fluoropyrrolidin-3-yl)amino)pyrimidin-4-yl)imidazo[1,2-a]pyridin-6-yl)propan-2-ol], in that order: 46 nM, 13 nM, less than 0.5 nM and 1 nM.
On to `COc1cc2ncc(-c3nc(N[C@H]4CNC[C@@H]4F)ncc3F)n2nc1C1CC(F)(F)C1` [Compound 50a, 4-(6-(3,3-difluorocyclobutyl)-7-methoxyimidazo[1,2-b]pyridazin-3-yl)-5-fluoro-N-((3S,4S)-4-fluoropyrrolidin-3-yl)pyrimidin-2-amine], for which the 50% inhibitory concentration (IC50) in the experiment on MOLM14 D835Y cells was 29 nM; at IRAK1 it was 3 nM; on FLT3, less than 0.5 nM; on IRAK4, 0.8 nM.
Taken in the same sequence, the figures for `COc1cc2ncc(-c3cncc(N[C@H]4CNC[C@@H]4F)n3)n2nc1C1CC(F)(F)C1` [Compound 71a, 6-(6-(3,3-difluorocyclobutyl)-7-methoxyimidazo[1,2-b]pyridazin-3-yl)-N-((3S,4S)-4-fluoropyrrolidin-3-yl)pyrazin-2-amine] were 576 nM, 342 nM, 1 nM and 64 nM.
For `COc1cc2ncc(-c3cncc(N[C@@H]4CCCNC4)n3)n2nc1C1CC(F)(F)C1` [Compound 72a, (R)-6-(6-(3,3-difluorocyclobutyl)-7-methoxyimidazo[1,2-b]pyridazin-3-yl)-N-(piperidin-3-yl)pyrazin-2-amine], in that order: 289 nM, 127 nM, 0.8 nM and 60 nM.
On to `COc1cc2ncc(-c3cncc(N[C@H]4CNCC[C@@H]4F)n3)n2nc1C1CC(F)(F)C1` [Compound 73a, 6-(6-(3,3-difluorocyclobutyl)-7-methoxyimidazo[1,2-b]pyridazin-3-yl)-N-((3S,4S)-4-fluoropiperidin-3-yl)pyrazin-2-amine], for which the IC50 was 204 nM in the experiment on MOLM14 D835Y cells, 129 nM at IRAK1, less than 0.5 nM at FLT3 and 12 nM at IRAK4.
In the case of `COc1cc2ncc(-c3ccnc(N[C@@H]4CCCNC4)n3)n2nc1C1CCC1` [Compound 78a, (R)-4-(6-cyclobutyl-7-methoxyimidazo[1,2-b]pyridazin-3-yl)-N-(piperidin-3-yl)pyrimidin-2-amine], the IC50 with MOLM14 D835Y cells is 29 nM; on IRAK1, 75 nM; at FLT3 it was less than 0.5 nM; on IRAK4, 7 nM.

A word on the IC50: it is the concentration at which inhibition is half-maximal.

The values are drawn from patent US20260226048A1, “MULTI-CYCLIC IRAK AND FLT3 INHIBITING COMPOUNDS AND USES THEREOF” (CHILDREN'S HOSPITAL MEDICAL CENTER, priority 2023, published 2026).
